In patent publication US11135203B2, “Forazolines, compositions thereof and uses thereof” (Wisconsin Alumni Research Foundation, priority 2013, dated 2021):

How the values were obtained:
[1] = test system: Saccharomyces cerevisiae deletion mutant strains; experiment: Chemical genomic profiling against deletion mutant yeast strains; format: cell-based; details: for sensitivity of mutant LEM3-Δ: chemical genomic profile of known antifungal agents
Procedure: This method has been used to explore the mechanism of action for bioactive compounds, including natural products. Forazoline A was screened against over four thousand deletion mutant yeast strains, genomic DNA was extracted, and mutant-specific DNA barcodes were amplified and sequenced by Illumina sequencing. Forazoline A sensitive and resistant mutants were determined by quantification of DNA-barcodes, which provided a chemical genomic profile used to evaluate the mechanism of action.

[2] = Toxic effects observed in treated mice of the candidiasis model; format: in vivo; details: neutropenic mice, 2.5, 0.78 and 0.125 mg/kg, 8 hours
Procedure: (§1) Animals. Six-week-old ICR Swiss specific-pathogen-free female mice weighing 23 to 27 g were used for all studies. Animals were maintained in accordance with the American Association for Accreditation of Laboratory Care criteria. Animal studies were approved by the University of Wisconsin Animal Care Committee.
Drug Treatment. […] The intravenous dose was given by the lateral tail vein via a 200 μL infusion. The intraperitoneal dose was administered in 500 μL volume. Control mice were treated with saline. Groups of mice were sacrificed at the start of therapy and 8 hours after therapy for determination of organism burden in the kidney as described above.

Candida albicans K1 = experiment: Neutropenic murine disseminated candidiasis model, kidney organism burden; format: in vivo; details: Candida albicans K1, single dose 2.5, 0.78 and 0.125 mg/kg, after 8 hours
Description: as §1
Infection model. A neutropenic, murine, disseminated candidiasis model was used for the treatment studies. Mice were rendered neutropenic (polymorphonuclear cell counts of <100 mm^3) by injecting cyclophosphamide subcutaneously 4 days before infection (150 mg/kg of body weight) and 1 day before infection (100 mg/kg). Candida albicans K1 was subcultured on Sabouraud dextrose agar (SDA) 24 h prior to infection. The inocula were prepared by placing three to five colonies into 5 ml of sterile 0.15 M NaCl warmed to 35° C. The final inoculum was adjusted to 0.6 transmittance at 530 nm. Fungal counts of the inocula determined by viable counts on SDA were 5.63±0.38 log10 CFU/mL (mean±standard deviation).
Disseminated infection with C. albicans organisms was produced by injection of 0.1 ml of the inoculum via the lateral tail vein 2 h prior to the start of antifungal therapy. At the end of the study period (8 h), animals were sacrificed by CO2 asphyxiation. […] The results are expressed as the mean and standard deviation of the log10 CFU/kidney from three mice. […]

Water solubility = format: physicochemical
[3] = Synergy studies with amphotericin B (AMB); format: cell-based; details: combination with amphotericin B

C[C@@H]1[C@H](O)[C@@H](C)/C=C/C=C/C=C/C=C/C=C/C=C/C=C/[C@H](O[C@@H]2O[C@H](C)[C@@H](O)[C@H](N)[C@@H]2O)C[C@@H]2O[C@](O)(C[C@@H](O)C[C@@H](O)[C@H](O)CC[C@@H](O)C[C@@H](O)CC(=O)O[C@H]1C)C[C@H](O)[C@H]2C(=O)O [amphotericin, amphotericin B]
sensitivity of mutant LEM3-Δ [1]: not among the most sensitive strains

OC(Cn1cncn1)(Cn1cncn1)c1ccc(F)cc1F [fluconazole]
sensitivity of mutant LEM3-Δ [1]: not among the most sensitive strains

CC[C@H](C)C[C@H](C)CCCCCCCCC(=O)N[C@H]1C[C@@H](O)[C@@H](NCCN)NC(=O)[C@@H]2[C@@H](O)CCN2C(=O)[C@H]([C@H](O)CCN)NC(=O)[C@H]([C@H](O)[C@@H](O)c2ccc(O)cc2)NC(=O)[C@@H]2C[C@@H](O)CN2C(=O)[C@H]([C@@H](C)O)NC1=O [caspofungin]
sensitivity of mutant LEM3-Δ [1]: not among the most sensitive strains

CO[C@H]1[S+]([O-])C2=CC(=O)[C@](C)(O[C@H]3CC[C@H](N(C)C)[C@@H](C)O3)[C@@H](O)CCC(C)=C[C@@H]3[C@@H](C)[C@](C)(Cl)[C@@H](C[C@H]3O[C@H]3CC[C@H](N(C)C)[C@@H](C)O3)OC(=O)[C@@H]3CSC(=N3)[C@]1(C)N2 (some centres unmarked) [Forazoline A]
gene enrichment of top sensitive mutant strains (P<0.0001) ([1]; GO: 0045332, P=0.0009, driven by LEM3 and FPK1 deletion mutants): significantly enriched for genes involved in phospholipid translocation | toxic effects from the compound [2]: No toxic effects | reduction in organism burden compared to control mice (Candida albicans K1): 1.5+/−0.12 log10 cfu/kidney | water solubility (Water solubility): about 5 mg/mL | interaction when tested with AMB [3]: synergy
